The source of these data is a melting point compilation (Tetko et al.; mined from patent text by program, amines drawn as free bases though some values may be those of a salt).

The melting point is the temperature of the solid-liquid transition.

The molecule `Cc1c(-c2ccc(C(F)(F)F)cc2)n(Cc2ccc(OCCBr)cc2)c2ccc(OCc3ccccc3)cc12` had a melting point of 106 to 109 °C.
For the molecule `CNC(=S)C1(c2cccnc2)CCCCC1=O` (configuration not stated), the melting point lay in the range of 188 to 190 °C.
With `CCc1nc(CC)c(CO)c(-c2ccccc2)c1CC`, the melting point came to 100 °C.
The molecule `O=Cc1cccc(-c2nnc(-c3ccc(C(F)(F)F)cc3)o2)c1` came in with a melting point of 129 to 130 °C.
In turn, `Cc1cc(C)c2c(n1)CC(c1ccccc1C)CC2=O` (configuration not stated) yielded a melting point of 106 to 107 °C.
For the molecule `Cc1c(CCCCCCCCCCCC(=O)O)cccc1C(=O)c1ccc(Cl)cc1`, the melting point turned out to be 79 °C.
With `CC(C)(C)c1ccc(C(=O)Nc2cn3c4c(ccc3n2)OCC4)cc1` the figure was 266 to 268 °C.
For `CC(C)OC(=O)C(C)n1c(C(F)(F)F)nc2cc(F)c(-n3c(=O)cc(C(F)(F)F)n(C)c3=O)cc21` (configuration not stated), the melting point lay within 133 to 135 °C.
`CC(=O)SCC(CCc1cccc(C)c1)C(=O)O` (configuration not stated) returned a melting point of 52 to 54 °C.
`COc1nc2nc(C(OC(C)=O)C3(Br)C(=O)N4C(C(=O)OCc5ccc([N+](=O)[O-])cc5)=CSC43)cn2c2c1CCC2` (configuration not stated) registered a melting point of 119 °C.
`NS(=O)(=O)c1ccc(S(=O)(=O)N2CCc3cccc(-c4ccc(F)cc4)c32)cc1` came in with a melting point of 189 to 190 °C.
`CCOC(=O)CNC(=O)c1ccc(-c2ccc([N+](=O)[O-])cc2)cc1`: the melting point was in the range of 145 to 148 °C.
Consider `Clc1ccc2c(NCc3ccccc3)nc(-n3ccnc3)nc2c1`, for which the melting point is 265 to 268 °C.
As to `CC(C)(C)c1cc(SCCc2nnc(N)o2)cc(C(C)(C)C)c1O`, the melting point is 172 to 174 °C.
Turning to `NNC(=O)c1cccc(C(=O)N(NC(=O)c2ccccc2)C(=O)c2ccccc2)c1`, the melting point fell in the range of 297 to 299 °C.
On to `CC(C)(C)OC(=O)C(C)(C)Oc1ccc(N)cc1`, for which the melting point fell in the range of 87 to 88 °C.
`CC(=O)OCCCC1Oc2c(C)c(C)c(OC(C)=O)c(C)c2S1` (configuration not stated) came in with a melting point of 78 to 79 °C.
In the case of `CC(=O)c1cc2c(Cl)cc(F)c(-n3c(=O)cc(C(F)(F)F)n(C)c3=O)c2o1`, the melting point lay within 193 to 194 °C.
For `O=C(O)C1=Cc2cc(-c3ccc(Cl)s3)ccc2OC1C(F)(F)F` (configuration not stated), the melting point was 205 to 206 °C.
With `CC(C)COc1ccc(-n2ncc(C(=O)O)c2Cl)cc1C#N` the figure was 216 to 218 °C.
For `CN(C(=O)c1ccccc1C(c1ccc(O)cc1)c1ccc(O)cc1)c1ccccc1`, the melting point lay within 246 to 247 °C.
In turn, `O=C1CCCN1S(=O)(=O)c1ccc(N2CCOCC2)cc1` yielded a melting point of 120 to 122 °C.
Next, `Cc1cccc2c1C(=O)C(COC(=O)Nc1ccccc1)(COC(=O)Nc1ccccc1)CS2=O` (configuration not stated): 76 to 82 °C; `Brc1ccc2c(c1)C(c1ccccn1)=NCc1nncn1-2`: 252 to 255 °C.
Next, `O=C(O)C1CS(=O)(=O)C2CC(=O)N12` (configuration not stated): 164 to 167 °C.
Next, `C[C@@H](n1cnc2cc(NCc3ccccc3)ccc2c1=O)[C@](O)(Cn1cncn1)c1ccc(F)cc1F`: 100 to 107 °C; `N#Cc1cc(Cc2ccccc2)ccc1N`: 68 to 69 °C.
`CCOC(=O)C1=Cc2cc(N)ccc2OC1C(F)(F)F` (configuration not stated) showed a melting point of 111 to 115 °C.
With `CCCc1nc2c(N)nc3cc(-c4cccnc4)ccc3c2n1CCCCNC(=O)OC(C)(C)C`, the melting point fell in the range of 136 to 138 °C.
With `CC(=O)N1C(=O)N(COCc2ccccc2)C(=O)C12c1ccccc1NC(=O)N2C` (configuration not stated), the melting point was in the range of 209 to 211 °C.
With `O=C(Nc1nccs1)c1c(C(F)(F)F)nc(-c2ccccc2)c(-c2ccccc2)c1O` the figure was 256 °C; with `Cc1nc2c(C)cccn2c(=O)c1CCN1CC=C(c2c[nH]c3ccccc23)CC1`, 210 to 212 °C.
As to `COc1ccc2cc([C@H](C)C(=O)OC[C@@]3(C)COC(C)(C)O3)ccc2c1`, the melting point fell in the range of 65 to 66 °C.
As to `O=C(O)c1ccc(CC(NC(=O)C(c2ccccc2)c2ccccc2)c2ccccc2)cc1` (configuration not stated), the melting point was in the range of 245 to 248 °C.
In turn, `COC(=O)C1Oc2ccccc2Cc2cccc(C)c2O1` (configuration not stated) had a melting point of 104 to 105 °C.
As for `O=C(NCc1ccn(-c2cc3nc(C(=O)O)c(=O)[nH]c3cc2C(F)(F)F)c1)Nc1cccc(C(=O)O)c1`, the melting point is 300 °C.
With `CCCc1nc2c(N)nc3cc(OCCOCCCl)ccc3c2s1`, the melting point fell in the range of 101 to 103 °C.
Take `Nc1ccc(C2(OC(=O)Nc3ccccc3)NCCC(c3ccccc3)O2)cc1` (configuration not stated): the melting point was found to be 110 °C.
Molecule `NNc1cc(OCC2CCCSC2)c(Cl)cc1F` (configuration not stated) returned a melting point of 83 to 87 °C.
On to `CCCCC1(CCCC)NC(c2nc(-c3ccncc3)c[nH]2)Cc2c1[nH]c1ccccc21` (configuration not stated), for which the melting point was in the range of 200 to 205 °C.
In turn, `COc1c(C)c(C)c(OC)c(C(O)(c2cccnc2)C2CCCC2)c1C` (configuration not stated) returned a melting point of 126 to 127 °C.
With `CCCCc1cn(CC(C)(C)C)c(=O)n1Cc1ccc(-c2ccccc2-c2nnn[nH]2)nc1` the figure was 194 to 195 °C; with `CCOC(=O)C(C)c1csc(=Nc2ccccc2)n1C` (configuration not stated), 80 to 81 °C; with `CC(=O)Oc1cc2c(nc1C)C(=O)OC2=O`, 123 to 125 °C.
Next, `Cc1nc(N2CCN(Cc3ccc(F)cc3)C2=O)sc1C(=O)NCc1ncccn1`: 205 to 207 °C; `CC(=O)Nc1nc2c(s1)-c1c(cnn1-c1ccc(Cl)cc1)C2`: 296 to 305 °C; `c1ccc2c(NCCCCNc3nccc4ccccc34)nccc2c1`: 189 to 192 °C.
With `CCCCc1nnc(SCC(=O)OC)n1Cc1ccc(NC(=O)c2ccccc2C(=O)O)cc1` the figure was 161 to 162 °C; with `Cc1ccc(S(=O)(=O)N2CC(NC(=O)c3ccccc3)CC2C(=O)O)cc1` (configuration not stated), 120 to 125 °C; with `Cn1cc(C2=C(c3c4n(c5ccccc35)CCN(C(=S)n3ccnc3)C4)C(=O)NC2=O)c2ccccc21`, 244 to 247 °C.
As to `CN1Cc2cccc3[nH]cc(c23)C1`, the melting point was in the range of 185 to 186 °C.
The molecule `CCOCCOc1ccccc1-c1cc(=O)c2cc(C(=O)O)ccc2o1` returned a melting point of 198 to 200 °C.
Next, `O=C1NC(=O)c2c1cnc1[nH]ncc21`: 285 to 300 °C; `CSc1ccc(C(=O)NCc2ccc3c(c2)C(=O)N(C2CCC(=O)NC2=O)C3=O)nc1` (configuration not stated): 185 to 187 °C.
Turning to `CCOP(=O)(OCC)c1c(C)c2c(c(C)c1-c1c(OC)ccc3ccccc13)CN(S(=O)(=O)c1ccc(C)cc1)C2`, the melting point is 58 to 60 °C.
Consider `N#CCC#CC1(c2ccc(Cl)cc2)CC1`, for which the melting point fell in the range of 62 to 64 °C.
`CN1C(=O)N(CC(COc2ccc(-c3cccc(C#N)c3)cc2)N(O)C=O)C(=O)C1(C)C` (configuration not stated): the melting point was in the range of 130 to 132 °C.
`CC(=O)Nc1c(C(=O)c2cccc(F)c2)[nH]c2cc(Cl)ccc12`: the melting point lay within 201 to 202 °C.
`CC(C)(C)c1nnc(-c2nn(-c3ccc(F)cc3F)c3c2C2CCC3C2)o1` (configuration not stated) displayed a melting point of 108 to 110 °C.
As to `OCc1cccc(C(O)(C(F)(F)F)C(F)(F)F)n1`, the melting point was in the range of 62 to 63 °C.
With `O=[N+]([O-])c1cccc2nc3c(nc12)OCC1CCCCN31` (configuration not stated) the figure was 205 to 207 °C; with `CCCCCCCCC(CCCCCCCC)n1c2ccsc2c2sccc21`, 60 °C.
The molecule `c1ccc(-c2ncc(-c3n[nH]c(-c4cccnc4)n3)cn2)cc1` showed a melting point of 322 to 333 °C.
The molecule `O=C(O)CCC(=O)Oc1ccc(N(CCCl)CCCl)cc1` displayed a melting point of 98 to 100 °C.
`CCCSc1ncc(CC(C(=O)O)C(=O)OCC)n1Cc1ccccc1Cl` (configuration not stated) came in with a melting point of 118 to 120 °C.
In the case of `Ic1ccc(Cc2ccc(I)cc2)cc1`, the melting point lay in the range of 160 to 164 °C.
Next, `CCCC(=O)c1cnc2c(OC)cccc2c1Nc1sccc1C`: 132 to 133 °C; `COc1ccc(C(=O)Nc2ccc(C(=O)Cl)c3ccccc23)cc1OC`: 167 to 171 °C.
`CCOC(=O)c1c(C)nn(C)c1S(=O)(=O)NC(=S)Nc1nc(C)cc(OC)n1` registered a melting point of 157 to 158 °C.
In turn, `O=C(NN1CCCNC1=O)OCc1ccccc1` gave a melting point of 161 to 163 °C.
Next, `COc1cc2ccc(C(=O)C(C)C)cc2cc1OC`: 103 to 105 °C; `Cc1cc(NC(=O)NN(c2ccccc2)c2cccc(C#N)c2)ccc1N1CCOCC1`: 115 to 116 °C; `CN(CCNCc1c(O)c(Br)cc2c1CCC2(C)C)CCNC(=O)c1nc(Cl)c(N)nc1N`: 134 to 136 °C.
In turn, `CONC(=O)Cc1c(C)n(C(=O)c2ccc(Cl)cc2)c2ccc(OC)cc12` showed a melting point of 184 to 185 °C.
Regarding `O=P(O)(O)CCCCCCCCC(F)(F)C(F)(F)C(F)(F)C(F)(F)F`, the melting point is 87 to 89 °C.
Next, `CCn1cc(C(=O)NCCc2ccccc2)c(=O)c2cnc(N3CCCC3)nc21`: 178 to 180 °C; `OCCCCCCOc1ccccc1`: 69 to 74 °C.
On to `CC1=CC(O)C(OC(=O)C=Cc2ccccc2)C(C)(C)CC1=O` (configuration not stated), for which the melting point was 85.5 to 87 °C.
The molecule `CN1C(=O)c2ccccc2Nc2ccccc21` came in with a melting point of 210 to 211 °C.
On to `CCCC1=C(C(=O)OCC)C(c2cccc(Cl)c2C)c2c[nH]nc2N1` (configuration not stated), for which the melting point was 185 °C.
Take `O=S(=O)(c1cc(Cl)ccc1Cl)n1c2cc(O)c(O)cc2c2ccc(O)c(O)c21`: the melting point was > 300 °C.
In the case of `CC(O)c1cccc(-c2ccc3nc(-c4ccc(Cl)cc4)cn3c2)c1Cl` (configuration not stated), the melting point lay in the range of 170 to 172 °C.
In turn, `CCCc1c(OCCCCCC(=O)NCCCCCCc2cccnc2)ccc(C(C)=O)c1O` yielded a melting point of 56 to 58 °C.
In turn, `COc1cccc2c1nc(C(F)F)n2-c1nc(Nc2cncnc2)nc(N2CCOCC2)n1` had a melting point of 293 to 295 °C.
Take `CCC(=O)Oc1ccc2nc(NC(=O)Nc3ccccc3)sc2c1`: the melting point was in the range of 212 to 215 °C.
In the case of `CSc1c(O[C@H]2CC[C@@H](N(C)C)CC2)ccc2[nH]ncc12`, the melting point is 139 to 140 °C.
With `O=[N+]([O-])c1cc(C2=NOC(c3cc(C(F)(F)F)cc(C(F)(F)F)c3)(C(F)(F)F)C2)ccc1N1C=NNN1` (configuration not stated) the figure was 147 to 149 °C.
